Assay results published in patent publication US8426604B2 (Janssen Pharmaceutica NV, priority 2010, dated 2013).

Tests used:
Zucker fa/fa male rats = experiment: Zucker fa/fa Rat Model Assay; type: in vivo; details: dosed orally once a day for 4 days, blood collected at day 5
From the text: Zucker fa/fa is a monogenic model of frank diabetes due to a mutation on the fa gene truncating the leptin receptor and preventing its interaction with its peptide hormone. This mutation results in a hyperphagic phenotype and the rodent develops obesity, hyperlipidemia, fasting hyperglycemia and insulin resistance. Zucker fa/fa male rats were received at four weeks of age and allowed to acclimate for one week. At five weeks of age the animals were single housed in cages in a temperature-controlled room with 12-hour light/dark cycle. The rats were allowed ad libitum access to water and food and throughout the study were maintained on a Purina 5008 diet. Animals were sorted based primarily on fed insulin levels and circulating triglycerides. Animals were dosed orally once a day in the morning for 4 days. The vehicle used was either 20% HPβCD (Hydroxypropyl Beta Cyclodextrin) or 15% Vitamin E/30% PEG-400 (Polyethylene Glycol 400). Fed insulin and triglycerides were measured using blood collected from the tail vein at day 5. Serum plasma samples were prepared by centrifugation in EDTA (Ethylenediaminetetraacetic acid) containing tubes, transferred into 96 well plates and stored at −80° C.

[1] = target: T1, ERR1 (also known as ERR-α or ERR-1) (Homo sapiens, UniProt P11474); experiment: TR-FRET assay (disruption of co-activator peptide binding); type: biochemical; details: 6His-tagged ERR1LBD, GST-hSRC2 co-activator peptide; average of 3 independent experiments
T1 sequence (P11474 193-421 limits assumed): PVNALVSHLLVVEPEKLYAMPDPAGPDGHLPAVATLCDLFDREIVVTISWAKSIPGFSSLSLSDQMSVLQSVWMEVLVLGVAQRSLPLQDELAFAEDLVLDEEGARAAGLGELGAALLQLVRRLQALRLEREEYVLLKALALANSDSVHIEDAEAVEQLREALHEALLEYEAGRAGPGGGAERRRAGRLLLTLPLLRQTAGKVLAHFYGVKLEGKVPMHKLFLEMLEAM
Description: Time-Resolved Fluorescence Resonance Energy Transfer (TR-FRET) experiments were performed to examine the functional response of ERR1 (also known as ERR-α or ERR-1) ligands. The TR-FRET assay described herein relied on the conformation of ERR1 for binding to a co-activator peptide: when a test compound binds to ERR1 and alters its conformation, it can disrupt the binding of the co-activator peptide. The components of this homogeneous secondary assay included: the ^6His-tagged-ERR1LBD, a GST-labeled-hSRC2 co-activator polypeptide and a fluorescent donor/acceptor pair from CIS bio international htrf/bioassays (Bedford, Mass.) using both an α-GST Europium Cryptate (Eu) label and an α^6His-XL665 (allophycocyanin) fluorophore.
For TR-FRET measurements, the reaction was buffered in 25 mM Tris pH 8, 2.5 mM Hepes, 20 mM KCl, 1 mM DTT, and 0.05 mg/mL BSA (-lipids). The final concentrations of reagents were 6 nM of ERR1LBD, 6 nM GST-SRC-2 peptide, 30 nM Eu cryptate, and 7.5 nM XL665. Reactions were allowed to reach equilibrium at 25° C. for 4-18 hours before collecting data on the Analyst from LJL Biosystems (Molecular Devices Sunnyvale, Calif.). As a time-resolved method, the samples were excited at […] and emission was collected for 1 ms at both 615 and 665 nm with delays of 400 and 75 μs, respectively. Dose response curves were fitted using a hyperbolic equation and the data reported is the average of 3 independent experiments.

| Compound | % Lowering Fed Insulin Levels (Zucker fa/fa male rats) | % Lowering Fed Triglyceride Levels (Zucker fa/fa male rats) | EC50 [1] |
| --- | --- | --- | --- |
| CN(C1=NC(=O)/C(=C/c2ccc3c(cnn3Cc3ccc(Cl)cc3C(F)(F)F)c2)S1)[C@@H](CO)C(=O)O [Compound 15, 2S-({5-[1-(4-Chloro-2-trifluoromethyl-benzyl)-1H-indazol-5-ylmethylene]-4-oxo-4,5-dihydro-thiazol-2-yl}-methyl-amino)-3-hydroxy-propionic acid] | 40% | 41% | 23 nM |
| CN1CCC(N(C)C2=NC(=O)/C(=C/c3ccc4c(cnn4Cc4ccc(C(F)(F)F)cc4C(F)(F)F)c3)S2)CC1 [Compound 20, 5-[1-(2,4-Bis-trifluoromethyl-benzyl)-1H-indazol-5-ylmethylene]-2-[methyl-(1-methyl-piperidin-4-yl)-amino]-thiazol-4-one] | 40% | 34% | 18 nM |
| CN(C1=NC(=O)/C(=C/c2ccc3c(cnn3Cc3ccc(C(F)(F)F)cc3C(F)(F)F)c2)S1)C1CCN(CC(N)=O)CC1 [Compound 52, 2-(4-{[-5-({1-[2,4-Bis(trifluoromethyl)benzyl]-1H-indazol-5-yl}methylidene)-4-oxo-4,5-dihydro-1,3-thiazol-2-yl](methyl)amino}piperidin-1-yl)acetamide] | 30% | 38% | 13 nM |
| CN(C1=NC(=O)/C(=C/c2ccc3c(cnn3Cc3ccc(C(F)(F)F)cc3C(F)(F)F)c2)S1)[C@@H]1CCN(CC(N)=O)C1 [Compound 56, 2-[(3R)-3-{[5-({1-[2,4-Bis(trifluoromethyl)benzyl]-1H-indazol-5-yl}methylidene)-4-oxo-4,5-dihydro-1,3-thiazol-2-yl](methyl)amino}pyrrolidin-1-yl]acetamide] |  |  | 15 nM |
| CN(C1=NC(=O)/C(=C/c2ccc3c(cnn3Cc3ccc(Cl)cc3C(F)(F)F)c2)S1)[C@@H]1CCN(CC(N)=O)C1 [Compound 57, 2-[(3R)-3-({5-[1-(4-Chloro-2-trifluoromethyl-benzyl)-1H-indazol-5-ylmethylene]-4-oxo-4,5-dihydro-thiazol-2-yl}-methyl-amino)-pyrrolidin-1-yl]-acetamide] |  |  | 15 nM |
| CN(CC(=O)O)C1=NC(=O)/C(=C/c2ccc3c(cnn3Cc3ccc(C(F)(F)F)cc3C(F)(F)F)c2)S1 [Compound 58, ({5-[1-(2,4-Bis-trifluoromethyl-benzyl)-1H-indazol-5-ylmethylene]-4-oxo-4,5-dihydro-thiazol-2-yl}-methyl-amino)-acetic acid] |  |  | 38 nM |
| CN(C1=NC(=O)/C(=C/c2ccc3c(cnn3Cc3ccc(C(F)(F)F)cc3C(F)(F)F)c2)S1)[C@H]1C[C@@H](CO)N(CC(N)=O)C1 [Compound 59, 2-[4-({5-[1-(2,4-Bis-trifluoromethyl-benzyl)-1H-indazol-5-ylmethylene]-4-oxo-4,5-dihydro-thiazol-2-yl}-methyl-amino)-2-hydroxymethyl-pyrrolidin-1-yl]-acetamide] |  |  | 27 nM |
| CONC(=O)[C@H]1C[C@H](N(C)C2=NC(=O)/C(=C/c3ccc4c(cnn4Cc4ccc(Cl)cc4C(F)(F)F)c3)S2)CN1 [Compound 60, 4-({5-[1-(4-Chloro-2-trifluoromethyl-benzyl)-1H-indazol-5-ylmethylene]-4-oxo-4,5-dihydro-thiazol-2-yl}-methyl-amino)-pyrrolidine-2-carboxylic acid methoxy-amide] |  |  | 25 nM |
| CN(CC(=O)O)C1=NC(=O)/C(=C/c2ccc3c(cnn3Cc3ccc(C(C)(C)O)cc3C(F)(F)F)c2)S1 [Compound 61, [(5-{1-[4-(1-Hydroxy-1-methyl-ethyl)-2-trifluoromethyl-benzyl]-1H-indazol-5-ylmethylene}-4-oxo-4,5-dihydro-thiazol-2-yl)-methyl-amino]-acetic acid] |  |  | 1200 nM |
| CN(CC(=O)O)C1=NC(=O)/C(=C/c2ccc3c(cnn3Cc3ccc(O)cc3C(F)(F)F)c2)S1 [Compound 62, ({5-[1-(4-Hydroxy-2-trifluoromethyl-benzyl)-1H-indazol-5-ylmethylene]-4-oxo-4,5-dihydro-thiazol-2-yl}-methyl-amino)-acetic acid] |  |  | 17 nM |
